Key:
[1] = tested on: HPAC cells; test: In vivo efficacy in HPAC cell line xenograft tumor model; settings: 30 mg/kg intraperitoneally twice a day for 10 days, day 10 vs day 0, HPAC xenograft in BALB/c nude mice
Protocol: Test Example 2: In Vivo Efficacy of Test Compounds in HPAC Model
This experiment is used to evaluate the in vivo efficacy of compounds in the HPAC model.
Source of experimental animals: Beijing Vital River Laboratory Animal Technology Co., Ltd., certificate number: 20170011007990.
Animal modeling and random grouping: HPAC cells were cultured and expanded to 30 T175 cm^2 culture flasks. Cells were collected, resuspended in serum-free culture medium DMEM for counting, and added with matrix glue at a ratio of 1:1, and inoculated into the right anterior subcutaneous region of BALB/c Nude mice at 5×10^6 cells/0.1 mL. When the average tumor volume reached approximately 281 mm^3, mice were randomly divided into various experimental groups according to tumor size, with 5 mice per group. The day of grouping was defined as day 0, that is, DO.
Experimental scheme: BALB/c nude mice were subcutaneously inoculated with HPAC cells to establish a cell line xenograft tumor model. The test was divided into a 30 mg/kg group of compound 21, a 30 mg/kg group of comparative compound, and a vehicle group, with 5 mice in each group. […] During the entire experiment, the body weight and tumor size of the mice were measured on days 4, 7, and 10 to observe whether toxic reactions occurred. Efficacy was evaluated based on relative tumor proliferation rate. […]

[2] = target: Ba/F3 KRAS-G12D cells (Homo sapiens, UniProt P01116, G12D, cells depend on it); test: Proliferation inhibitory activity on Ba/F3 KRAS-G12D stably transfected cell line (CellTiter-Glo, 72 hours); type: cell-based, mouse; settings: read-out: Ba/F3 KRAS-G12D IC50
Sequence of Ba/F3 KRAS-G12D cells (P01116 whole entry G12D): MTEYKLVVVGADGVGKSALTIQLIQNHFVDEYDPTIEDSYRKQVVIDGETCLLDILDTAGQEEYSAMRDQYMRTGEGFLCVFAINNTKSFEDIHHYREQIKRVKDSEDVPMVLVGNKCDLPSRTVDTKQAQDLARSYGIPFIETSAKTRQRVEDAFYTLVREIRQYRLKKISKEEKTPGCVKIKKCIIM
Text: (§1) Test Example 1: Proliferation Inhibitory Activity on Ba/F3 KRAS-G12D, Ba/F3 KRAS-G12V Stably Transfected Cell Lines and AGS Tumor Cell Lines Containing KRAS G12D Mutations
(§2) To determine the proliferation inhibitory activity of the compounds in vitro on mouse pro-B cells Ba/F3 (Ba/F3 KRAS-G12D and Ba/F3 KRAS-G12V cells stably expressing KRAS G12D/V mutant proteins) and gastric cancer AGS cells expressing KRAS G12D mutant protein.
(§3) Cell sources. Ba/F3 KRAS-G12D and Ba/F3 KRAS-G12V were purchased from Kyinno Biotech (Beijing) Co., Ltd, Cat. No.: KC-1259 and KC-1261, respectively; AGS was purchased from Shanghai Bioleaf Biotech Co., Ltd.
(§4) Cells in the logarithmic growth phase were seeded in a 96-well plate (8000, 8000, 4000 cells/well, 90 μL/well for Ba/F3 KRAS-G12D, Ba/F3 KRAS-G12V, and AGS cells respectively), incubated at 37° C. for 1 day with 5% CO2, and then a gradient dilution of the test compound was added thereto (compounds 1 to 28 and comparative compounds). The details were as follows, the compound stock solution (10 mM) previously dissolved in DMSO was diluted to 10 gradient concentrations at a fold ratio (4 fold) and diluted to 10 fold of the target concentration in another 96-well plate with culture medium, and then 10 μL/well of the compound solution was added to the 96-well plate seeded with cells to reach the target concentration (10000, 2500, 625, 156, 39, 10, 2.5, 0.6, 0.15, 0.04 nM). Each concentration was provided with 3 duplicate wells and a blank control. After continued incubation at 37° C. and 5% CO2 for 72 hours, 50 μL of CellTiter-Glo*2.0 reagent (luciferase ATP bioluminescence detection reagent, purchased from Promega, Cat. No.: G9243) was added to each well, shaken for 2 minutes, and incubated at room temperature for 8 minutes, and then fluorescence luminescence intensity was detected (light collection time was 100 ms). The inhibitory rate of compounds with various concentrations on cell proliferation was calculated. Cell proliferation inhibition rate (%)=[(luminous intensitycontrol group containing cell culture medium for 72 hour−luminous intensitycompound group for 72 hour)/(luminous intensitycontrol group containing cell culture medium for 72 hours−luminous intensitycontrol group without cell culture medium for 72 hour)]×100%. GraphPad Prism 8.3 software was used to analyze the data, and nonlinear S-curve regression was used to fit the data to obtain a dose-effect curve, from which the IC50 value was calculated.

[3] = target: Ba/F3 KRAS-G12V cells (Homo sapiens, UniProt P01116, G12V, cells depend on it); test: Proliferation inhibitory activity on Ba/F3 KRAS-G12V stably transfected cell line (CellTiter-Glo, 72 hours); type: cell-based, mouse; settings: read-out: Ba/F3 KRAS-G12V IC50
Sequence of Ba/F3 KRAS-G12V cells (P01116 whole entry G12V): as the sequence (P01116 whole entry G12D) above, with D12V counted along it
Text: as §1, §2, §3, §4

[4] = Body weight change of mice in HPAC xenograft model; type: in vivo; settings: 30 mg/kg intraperitoneally twice a day for 10 days, vs D0 weight, HPAC xenograft in BALB/c nude mice
Protocol: Experimental scheme: BALB/c nude mice were subcutaneously inoculated with HPAC cells to establish a cell line xenograft tumor model. The test was divided into a 30 mg/kg group of compound 21, a 30 mg/kg group of comparative compound, and a vehicle group, with 5 mice in each group. The mice were administered intraperitoneally in an administration volume of 10 μL/g. The vehicle group was given an equal amount of vehicle (sulfobutyl-β-cyclodextrin sodium salt dissolved in 50 mM citric acid buffer, the mass-to-volume concentration of sulfobutyl-β-cyclodextrin sodium salt was 10%, and the pH value of the vehicle was 5.0), administered twice a day for 10 days. During the entire experiment, the body weight and tumor size of the mice were measured on days 4, 7, and 10 to observe whether toxic reactions occurred. Efficacy was evaluated based on relative tumor proliferation rate. Other compounds of the present disclosure (compounds 1 to 20 and 22 to 28) were tested with reference to compound 21. Formula for calculating weight change: weight change (%)=(weight/D0 weight−1)×100%.

[5] = tested on: AGS cells; test: Proliferation inhibitory activity on AGS tumor cell line containing KRAS G12D mutation (CellTiter-Glo, 72 hours); type: cell-based; settings: Homo sapiens
Text: as §1, §2, §3, §4

Question: With `C#Cc1c(F)ccc2cc(O)cc(-c3nc(Cl)c4c(N5C[C@H]6CC[C@@H](C5)N6)nc(OC[C@@]56CCCN5C[C@H](F)C6)nc4c3F)c12` [Compound 21, 4-(4-((1R,5S)-3,8-Diazabicyclo[3.2.1]octan-3-yl)-5-chloro-8-fluoro-2-(((2R,7aS)-2-fluorohexahydro-1H-pyrrolizin-7a-yl)methoxy)pyrido[4,3-d]pyrimidin-7-yl)-5-ethynyl-6-fluoronaphthalen-2-ol] as the compound, how does the “T/C % (relative tumor proliferation rate)” value [1] read?
Answer: The value was −64.96%.

Question: What about the GI50 [2] of the same compound?
Answer: The GI50 was 1 nM.

Question: What about the GI50 [3] of the same compound?
Answer: The GI50 was 5000 to 10000 nM.

Question: And the “Weight change (%)” value [4]?
Answer: The value was −7.27%.

Question: What about the IC50 [5] of the same compound?
Answer: Its IC50 is 9 nM.
